A word on the IC50: it is the concentration that inhibits the measured activity by half.

Structures are written as SMILES. Where two headings read alike, the source gives them in different places.

Series [1] addresses T1, SARS-CoV-2 M^pro (Severe acute respiratory syndrome coronavirus 2, UniProt P0DTD1).
T1 construct: in vitro FRET-based assay using recombinant M^pro; purchased Beyotime P0315M
Briefly: biochemical. Conditions: for change of inhibition results upon addition of detergent: 0.1% Triton X-100, aggregation control; for inhibition curve, in words: 0.01-20 μM.

Series [2] deals with MRC-5 cells. Briefly: Cytotoxicity, MTT test. Conditions: 72 h, 100 to 3.12 μg/mL. In general terms: Tetrazolium assays rely on reduction of a dye to a coloured formazan, in cell work by metabolically active cells.
Series [3] has as its system Human coronavirus hCoV-229. The class given is cell-based.
The test system of series [4] is HCoV 229E. Nature of the series: Viral titres (TCID50) in MRC-5 cells. Conditions: MRC-5, 72 h, different concentrations.
Setting [5] is: Figure 2(l), Trial 1, read-out: IC50.
The mark [6] stands for this setting: Figure 2(l), Trial 2, read-out: IC50.
Where [7] appears, read: Figure 2(l), With Triton-X100, read-out: IC50.
[8] abbreviates: Figure 2 panels a-k, dose-response curve, mean ± SEM, n = 3, read-out: IC50.
Where [9] appears, read: Figure 4, With Triton-X100 (0.1%), unit inferred, read-out: IC50.
[10] abbreviates: Figure 4, Without Triton-X100, unit inferred, read-out: IC50.
Setting [11] is: IC50, Figure 2 panels a-k, dose-response curve, mean ± SEM, n = 3.

For the molecule `[O-][n+]1ccccc1SSc1cccc[n+]1[O-]` [Compound 8, dipyrithione], the “change of inhibition results upon addition of detergent” value in series [1] is reported as “did not change significantly”. Moreover, the IC50 in series [1] (setting [5]) was 172 nM; in series [1] (setting [6]), 171 nM; in series [1] (setting [7]) it was 266 nM; in series [1] (setting [8]), 172 ± 25 nM; in series [1] (setting [9]), 285 ± 38 nM; in series [1] (setting [10]), 173 ± 23 nM. Besides, the IC50 in series [1] (read-out: IC50) came to 180 nM. Further, the “cellular toxicity (cell viability)” value in series [2] is “limited toxicity”.

`Nc1nnc(Sc2ccc([N+](=O)[O-])cn2)s1` [Compound 4] came in with a half-inhibitory concentration (IC50) in series [1] (setting [11]) of 6220 ± 1790 nM.

In series [1] (setting [11]), `O=C1C2C3C=CC(C3)C2C(=O)C2C3C=CC(C3)C12` (centres unmarked) [Compound 5] came in with an IC50 of 9790 ± 1450 nM.

For `c1ccc2sc(SSc3nc4ccccc4s3)nc2c1` [Compound 1], the “change of inhibition results upon addition of detergent” value in series [1] is given as “did not change significantly”. Also, the IC50 stood at 714 nM in series [1] (setting [5]); 768 nM in series [1] (setting [6]); 622 nM in series [1] (setting [7]); 714 ± 182 nM in series [1] (setting [8]); 625 ± 102 nM in series [1] (setting [9]); 786 ± 151 nM in series [1] (setting [10]). For the same molecule, in series [1] (read-out: IC50), the IC50 amounted to 710 nM. Also, the “effect on cytopathogenic effect (CPE) of the virus” value in series [3] is “some reduction in CPE”; in series [3] (high multiplicity of infection (high viral load), MRC-5, 72 h), “no inhibitory effect”. Also, the “cellular toxicity (cell viability)” value in series [2] is listed as “minimal toxicity”.

As to `Cc1ccc(-n2c(/C=C/c3ccc([N+](=O)[O-])cc3)nc3ccccc3c2=O)cc1` [Compound 3], the 50% inhibitory concentration (IC50) in series [1] (setting [8]) amounted to 38300 ± 18300 nM.

As for `O=c1sc2ccccc2n1Cc1ccccc1` [Compound 7, 3-benzyl-1,3-benzothiazol-2-one], the “inhibition curve, in words” value in series [1] is given as “atypical inhibition results”. In series [1], the “change of inhibition results upon addition of detergent” value is given as “did not change significantly”. Besides, the IC50 in series [1] (IC50, Figure 2(l), Trial 1) was 174 nM; in series [1] (IC50, Figure 2(l), Trial 2), 179 nM; in series [1] (IC50, Figure 2(l), With Triton-X100) it was 241 nM. Also, in series [1] (at low concentrations, fluorescent signal increased at high compound concentrations), the “potency, in words” value is given as “highly potent”. In series [3] (across all the viral doses tested, MRC-5, 72 h), the “effect on cytopathogenic effect (CPE) of the virus” value is reported as “very significant reduction in CPE”. The “cellular toxicity (cell viability)” value in series [2] is “minimal toxicity”. For the same molecule, in series [4], the “effect on viral titres (TCID50)” value is recorded as “substantial reduction in the viral load”.

For `Cc1ccc(-c2oc3ccccc3c(=O)c2O)cc1` [Compound 2], the “inhibition curve, in words” value in series [1] is given as “atypical inhibition results”.

Regarding `Nc1nnc(Sc2ncc([N+](=O)[O-])s2)s1` [Compound 9, halicin], in series [1], the “change of inhibition results upon addition of detergent” value is listed as “did not change significantly”. Further, the half-inhibitory concentration (IC50) in series [1] (IC50) turned out to be 420 nM; in series [1] (IC50, Figure 2(l), Trial 1), 420 nM; in series [1] (IC50, Figure 2(l), Trial 2), 419 nM; in series [1] (setting [11]) it was 420 ± 49 nM; in series [1] (IC50, Figure 4, With Triton-X100 (0.1%), unit inferred), 461 ± 81 nM. The “cellular toxicity (cell viability)” value in series [2] was “toxic”.

Regarding `c1ccc(Sc2ncnc3c2oc2ccccc23)cc1` [Compound 6], it took 4980 ± 1280 nM to reach half-maximal inhibition in series [1] (setting [11]) (IC50).
